We go through 26 compounds from patent publication US12084420B2, “Indoline compounds for inhibiting KIF18A” (Volastra Therapeutics, Inc., priority 2021, dated 2024).

The target in test [1] is KIF18a-Microtubule Complex (Homo sapiens (Human), UniProt Q8NI77). The experiment in a line: Binding kinetics to KIF18a-microtubule complex (global progress curve analysis). Conditions: for koff (off-rate from binding kinetics assay) / kon (on-rate from binding kinetics assay): global progress curve analysis; for Ki: read-out: KI (determined from binding kinetic assay koff/kon), koff/kon. As to the method:
Binding Kinetics to KIF18a-Microtubule Complex
Compound binding kinetics parameters (kon and koff) were determined by the method of global progress curve analysis (GPCA). […] ADP product levels were determined by the Promega® ADP-Glo assay. The time/dose-dependent progress curves were then globally fit to a Michaelis-Menten kinetics model with 1-step slow binding inhibition to derive both on-rate kon and off-rate koff values (Zhang, R., Wong, K. (2017): “High performance enzyme kinetics of turnover, activation and inhibition for translational drug discovery”, Expert Opinion on Drug Discovery, 2017 January; 12(1):17-37. doi: 10.1080/17460441.2017.1245721).

Another test has as its target hKIF18A (1-374) (Homo sapiens (Human), UniProt Q8NI77). The experiment in a line: Inhibition of KIF18A microtubule-dependent ATPase activity (ADP-Glo). (In general: In ADP-Glo the light output rises with the ADP produced.)
Where [2] appears, read: KIF18A microtubule-dependent ATPase activity, biochemical assay.

Read-outs that look alike come from different tables or passages of the source.

As a reminder, the IC50 is the concentration at which inhibition is half-maximal. Lower therefore signals greater potency. In general, koff refers to the first-order rate constant of dissociation.

KIF18a-Microtubule Complex, sequence (Q8NI77 whole entry, looked up): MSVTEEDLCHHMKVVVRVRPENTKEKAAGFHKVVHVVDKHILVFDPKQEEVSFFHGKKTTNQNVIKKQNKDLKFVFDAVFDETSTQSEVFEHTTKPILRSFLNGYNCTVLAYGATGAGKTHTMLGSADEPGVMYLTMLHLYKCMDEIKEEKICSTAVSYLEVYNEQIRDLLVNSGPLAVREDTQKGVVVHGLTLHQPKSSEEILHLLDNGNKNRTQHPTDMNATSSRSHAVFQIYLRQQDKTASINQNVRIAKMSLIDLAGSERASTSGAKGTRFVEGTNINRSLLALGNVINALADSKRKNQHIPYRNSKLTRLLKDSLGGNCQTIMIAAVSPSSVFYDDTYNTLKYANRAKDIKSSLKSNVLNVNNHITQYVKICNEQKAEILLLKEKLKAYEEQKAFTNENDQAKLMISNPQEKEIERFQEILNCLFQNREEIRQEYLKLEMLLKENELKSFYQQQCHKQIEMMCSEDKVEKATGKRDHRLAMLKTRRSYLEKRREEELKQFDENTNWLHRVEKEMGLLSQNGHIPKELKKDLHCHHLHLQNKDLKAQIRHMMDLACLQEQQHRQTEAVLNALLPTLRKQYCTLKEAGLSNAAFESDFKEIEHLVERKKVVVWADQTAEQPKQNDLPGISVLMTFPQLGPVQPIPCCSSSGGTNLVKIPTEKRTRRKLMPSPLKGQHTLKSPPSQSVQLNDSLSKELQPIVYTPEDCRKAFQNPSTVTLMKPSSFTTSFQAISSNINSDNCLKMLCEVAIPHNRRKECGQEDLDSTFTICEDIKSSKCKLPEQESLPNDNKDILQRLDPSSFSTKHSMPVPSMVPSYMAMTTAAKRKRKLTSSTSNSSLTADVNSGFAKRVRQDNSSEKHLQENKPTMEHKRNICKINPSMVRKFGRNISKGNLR
KIF18a-Microtubule Complex, sequence (Q2XVP4 whole entry partner, looked up): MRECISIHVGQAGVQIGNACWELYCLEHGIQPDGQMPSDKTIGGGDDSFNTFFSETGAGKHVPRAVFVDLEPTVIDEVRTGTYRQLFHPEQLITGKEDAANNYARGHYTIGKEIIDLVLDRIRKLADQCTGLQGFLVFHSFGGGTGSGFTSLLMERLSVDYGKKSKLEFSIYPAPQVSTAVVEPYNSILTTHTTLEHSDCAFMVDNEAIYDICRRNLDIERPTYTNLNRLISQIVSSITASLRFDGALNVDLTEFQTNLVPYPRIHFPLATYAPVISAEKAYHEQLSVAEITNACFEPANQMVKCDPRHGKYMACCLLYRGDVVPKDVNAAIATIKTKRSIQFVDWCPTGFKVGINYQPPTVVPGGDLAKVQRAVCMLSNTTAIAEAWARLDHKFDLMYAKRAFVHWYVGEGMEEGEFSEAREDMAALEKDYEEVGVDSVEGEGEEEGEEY
KIF18a-Microtubule Complex, sequence (P02554 whole entry partner, looked up): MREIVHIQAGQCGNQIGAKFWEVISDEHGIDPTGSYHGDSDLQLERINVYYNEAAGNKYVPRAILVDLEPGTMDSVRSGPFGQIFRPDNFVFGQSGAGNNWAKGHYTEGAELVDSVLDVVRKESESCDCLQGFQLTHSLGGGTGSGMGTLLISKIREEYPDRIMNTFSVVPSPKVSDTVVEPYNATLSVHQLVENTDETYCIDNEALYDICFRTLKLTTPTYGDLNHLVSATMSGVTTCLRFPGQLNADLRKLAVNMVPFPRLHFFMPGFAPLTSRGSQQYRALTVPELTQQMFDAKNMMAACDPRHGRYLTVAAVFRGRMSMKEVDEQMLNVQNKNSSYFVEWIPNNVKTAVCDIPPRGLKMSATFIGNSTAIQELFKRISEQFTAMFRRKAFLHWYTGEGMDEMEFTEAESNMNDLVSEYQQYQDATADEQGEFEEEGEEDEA
hKIF18A (1-374), sequence (Q8NI77 whole entry, looked up): as the sequence (Q8NI77 whole entry, looked up) above
hKIF18A (1-374), sequence (Q2XVP4 whole entry partner, looked up): as the sequence (Q2XVP4 whole entry partner, looked up) above
hKIF18A (1-374), sequence (P02554 whole entry partner, looked up): as the sequence (P02554 whole entry partner, looked up) above

Turning to `CS(=O)(=O)Nc1ccc2c(c1)C1(CCC3(CC3)CC1)CN2C(=O)c1cccc([C@H](O)C2CCCC2)n1` (single isomer, unassigned) [Compound 317b], in test [1], the “koff (off-rate from binding kinetics assay)” value came to 9.72e-05 s⁻¹, the “kon (on-rate from binding kinetics assay)” value (“kon” for short) is 16400 M⁻¹ s⁻¹, the “disc. t1/2 (dissociation half-life ln(2)/koff)” value is on record as 2.0 h and the Ki amounted to 5.9 nM. Moreover, the IC50 against hKIF18A (1-374) (setting [2]) was 10 nM. `CS(=O)(=O)Nc1ccc2c(c1)C1(CCC3(CC3)CC1)CN2C(=O)c1cccc([C@@H](O)C2CCCC2)n1` (single isomer, unassigned) [Compound 317a]: in test [1], the “koff (off-rate from binding kinetics assay)” value was determined as 9.17e-05 s⁻¹, the “kon” value is 9170 M⁻¹ s⁻¹, the “disc. t1/2 (dissociation half-life ln(2)/koff)” value amounted to 2.1 h and the Ki stood at 10 nM. The 50% inhibitory concentration (IC50) against hKIF18A (1-374) (setting [2]) stood at 11 nM.

`CC(C)(C)NS(=O)(=O)c1cc(C(=O)N2CC3(CCC4(CC4)CC3)c3cc(NS(C)(=O)=O)ccc32)cs1` [Compound 262, N-(tert-butyl)-4-(5″- (methylsulfonamido)dispiro[cyclopropane-1,1′-cyclohexane-4′,3″-indoline]-1″-carbonyl)thiophene-2-sulfonamide]: in test [1], the “kon” value was 8890 M⁻¹ s⁻¹, the “disc. t1/2 (dissociation half-life ln(2)/koff)” value is given as 6.7 h and the Ki is 0.31 nM. In test [1] (read-out: koff (off-rate from binding kinetics assay)), the koff is 2.86e-05 s⁻¹. Besides, the IC50 at hKIF18A (1-374) (setting [2]) is 5.9 nM.

On to `CS(=O)(=O)Nc1ccc2c(c1)C1(CCC3(CC3)CC1)CN2C(=O)c1cccc([C@H](O)C2CC(F)(F)C2)c1` (single isomer, unassigned) [Compound 351a], for which, in test [1], the “koff (off-rate from binding kinetics assay)” value amounted to 0.000114 s⁻¹, the “kon” value stood at 19400 M⁻¹ s⁻¹, the “disc. t1/2 (dissociation half-life ln(2)/koff)” value amounted to 1.7 h and the Ki was 5.8 nM. The IC50 against hKIF18A (1-374) (setting [2]) turned out to be 8.7 nM.

`CC(C)(C)NS(=O)(=O)c1cccc(C(=O)N2C[C@]3(CC[C@@H](C(F)F)CC3)c3cc(NS(C)(=O)=O)ccc32)c1` [Compound 162b] gave an IC50 at hKIF18A (1-374) (setting [2]) of 37 nM. The same measure, in the same setting: to `CC1=CCC2(CC1)CN(C(=O)c1cccc(S(=O)(=O)NC(C)(C)C)c1)c1ccc(NS(C)(=O)=O)cc12` (stereo not drawn) [Compound 295, N-(tert-butyl)-3-(4-methyl-5′-(methylsulfonamido)spiro[cyclohexane-1,3′-indolin]-3-en-1′-carbonyl)benzenesulfonamide] belongs 38 nM. As for `CS(=O)(=O)Nc1ccc2c(c1)C1(CCC3(CC3)CC1)CN2C(=O)c1csc(S(=O)(=O)N2CC3(CCC3)C2)c1` [Compound 279, N-(1″-(5-((2-azaspiro[3.3]heptan-2-yl)sulfonyl)thiophene-3-carbonyl)dispiro[cyclopropane-1,1′-cyclohexane-4′,3″-indolin]-5″- yl)methanesulfonamide], at hKIF18A (1-374) (setting [2]), the IC50 came out at 6.3 nM. On the same count and under the same terms, the result for `CS(=O)(=O)Nc1ccc2c(c1)C1(CCC3(CC3)CC1)CN2C(=O)c1cccc([C@@H](O)C2CCC2)c1` (single isomer, unassigned) [Compound 313a] reads 19 nM; that for `CCS(=O)(=O)Nc1ccc2c(c1)C1(CCC3(CC3)CC1)CN2C(=O)c1ccc([C@H](O)C(C)(C)C)o1` (single isomer, unassigned) [Compound 372a], 37 nM.

`CS(=O)(=O)Nc1ccc2c(c1)C1(CCC3(CC3)CC1)CN2C(=O)c1csc(S(=O)(=O)N2CCC(F)(F)CC2)c1` [Compound 281, N-(1″-(5-((4,4-difluoropiperidin-1-yl)sulfonyl)thiophene-3-carbonyl)dispiro[cyclopropane-1,1′-cyclohexane-4′,3″-indolin]-5″- yl)methanesulfonamide] returned an IC50 against hKIF18A (1-374) (setting [2]) of 13 nM. Same read-out and setting: the result for `CCS(=O)(=O)Nc1ccc2c(c1)C1(CCC(F)(F)CC1)CN2C(=O)c1cc(S(=O)(=O)N2CC3(CCC3)C2)cs1` [Compound 272, N-(1′-(4-((2-azaspiro[3.3]heptan-2-yl)sulfonyl)thiophene-2-carbonyl)-4,4-difluorospiro[cyclohexane-1,3′-indolin]-5′-yl)ethanesulfonamide] reads 38 nM; that for `COCC(C)NS(=O)(=O)c1cccc(C(=O)N2CC3(CCC4(CC4)CC3)c3cc(NS(C)(=O)=O)ccc32)c1` (stereo not drawn) [Compound 200, N-(1-methoxypropan-2-yl)-3-(5″- (methylsulfonamido)dispiro[cyclopropane-1,1′-cyclohexane-4′,3″-indoline]-1″-carbonyl)benzenesulfonamide], 72 nM. In turn, `O=C(c1cccc(S(=O)(=O)N2CCCC2)c1)N1CC2(CCC3(CC3)CC2)c2ccccc21` [Compound 8, dispiro[cyclopropane-1,1′-cyclohexane-4′,3″-indolin]-1″-yl(3-(pyrrolidin-1-ylsulfonyl)phenyl)methanone] returned an IC50 on hKIF18A (1-374) (setting [2]) of 940 nM.

`CS(=O)(=O)Nc1ccc2c(c1)C1(CCC3(CC3)CC1)CN2C(=O)c1cc(C(O)C2CCCC2)cs1` (stereo not drawn) [Compound 364, N-(1″-(4-(cyclopentyl(hydroxy)methyl)thiophene-2-carbonyl)dispiro[cyclopropane-1,1′-cyclohexane-4′,3″-indolin]-5″- yl)methanesulfonamide] yielded an IC50 on hKIF18A (1-374) (setting [2]) of 5.1 nM.

`CS(=O)(=O)Nc1ccc2c(c1)C1(CCC3(CC3)CC1)CN2C(=O)c1cccc(S(=O)(=O)CC2CCC2)c1` [Compound 335, N-(1″-(3-((cyclobutylmethyl)sulfonyl)benzoyl)dispiro[cyclopropane-1,1′-cyclohexane-4′,3″-indolin]-5″-yl)methanesulfonamide] gave an IC50 against hKIF18A (1-374) (setting [2]) of 9.3 nM. Same read-out and setting: the result for `CS(=O)(=O)Nc1ccc2c(c1)C1(CCC3(CC3)CC1)CN2C(=O)c1cccc(CN2CCC(F)(F)CC2)n1` [Compound 342, N-(1″-(6-((4,4-difluoropiperidin-1-yl)methyl)picolinoyl)dispiro[cyclopropane-1,1′-cyclohexane-4′,3″-indolin]-5″- yl)methanesulfonamide] reads 20 nM. `C[C@@H]1CCN(S(=O)(=O)c2cccc(C(=O)N3CC4(CCC5(CC5)CC4)c4cc(NS(C)(=O)=O)ccc43)c2)C1` [(R)-Compound 249, (R)-N-(1″-(3-((3-methylpyrrolidin-1-yl)sulfonyl)benzoyl)dispiro[cyclopropane-1,1′-cyclohexane-4′,3″-indolin]-5″- yl)methanesulfonamide] displayed an IC50 at hKIF18A (1-374) of 11 nM. With `CC(C)(C)NS(=O)(=O)c1cccc(C(=O)N2CC3(CC=CC3)c3cc(NS(C)(=O)=O)ccc32)c1` [Compound 243, N-(tert-butyl)-3-(5′-(methylsulfonamido)spiro[cyclopentane-1,3′-indolin]-3-en-1′-carbonyl)benzenesulfonamide], the midpoint of inhibition on hKIF18A (1-374) (setting [2]), the IC50, lay at 140 nM.

On hKIF18A (1-374) (setting [2]), `CC1CCC2(C1)CN(C(=O)c1cccc(S(=O)(=O)N3CCC(F)(F)CC3)c1)c1ccc(NS(C)(=O)=O)cc12` (stereo not drawn) [Compound 23, N-(1′-(3-((4,4-difluoropiperidin-1-yl)sulfonyl)benzoyl)-3-methylspiro[cyclopentane-1,3′-indolin]-5′-yl)methanesulfonamide] returned an IC50 of 23 nM.

For the compound `CS(=O)(=O)Nc1ccc2c(c1)C1(CCCCC1)CN2C(=O)c1csc(S(=O)(=O)NC2CCC2)c1` [Compound 284, N-cyclobutyl-4-(5′-(methylsulfonamido)spiro[cyclohexane-1,3′-indoline]-1′-carbonyl)thiophene-2-sulfonamide], on hKIF18A (1-374) (setting [2]), it took 26 nM to reach half-maximal inhibition (IC50). Same read-out and setting: the result for `CS(=O)(=O)Nc1ccc2c(c1)C1(CCC3(CC3)CC1)CN2C(=O)c1cccc(C(O)C2CC(F)(F)C2)c1` (stereo not drawn) [Compound 351, N-(1″-(3-((3,3-difluorocyclobutyl)(hydroxyj)methyl)benzoyl)dispiro[cyclopropane-1,1′-cyclohexane-4′,3″-indolin]-5″- yl)methanesulfonamide] reads 8.8 nM; that for `CCS(=O)(=O)Nc1ccc2c(c1)C1(CCC3(CC3)CC1)CN2C(=O)c1cccc(S(=O)(=O)NC2CC(F)(F)C2)c1` [Compound 293, N-(3,3-difluorocyclobutyl)-3-(5″- (ethylsulfonamido)dispiro[cyclopropane-1,1′-cyclohexane-4′,3″-indoline]-1″- carbonyl)benzenesulfonamide], 17 nM.

Take `COc1ccc(C(=O)N2CC3(CCC4(CC4)CC3)c3cc(NS(C)(=O)=O)ccc32)cc1S(=O)(=O)NC12CC(C1)C2` [Compound 311, N-(bicyclo[1.1.1]pentan-1-yl)-2-methoxy-5-(5″-(methylsulfonamido)dispiro[cyclopropane-1,1′-cyclohexane-4′,3″-indoline]-1″- carbonyl)benzenesulfonamide]: at hKIF18A (1-374) (setting [2]), the IC50 was determined as 5.2 nM. As for `CS(=O)(=O)Nc1ccc2c(c1)C1(CCC3(CC3)CC1)CN2C(=O)c1cccc(C(O)CC2CCC2)c1` (stereo not drawn) [Compound 305, N-(1″-(3-(2-cyclobutyl-1-hydroxyethyl)benzoyl)dispiro [cyclopropane-1,1′-cyclohexane-4′,3″-indolin]-5″-yl)methanesulfonamide], the IC50 against hKIF18A (1-374) (setting [2]) is 8.9 nM. Consider `O=C(c1cccc(S(=O)(=O)N2CC3(CCC3)C2)c1)N1CC2(CCC3(CC3)CC2)c2cc(NS(=O)(=O)CCO)ccc21` [Compound 228, N-(1″-(3-((2-azaspiro[3.3]heptan-2-yl)sulfonyl)benzoyl)dispiro[cyclopropane-1,1′-cyclohexane-4′,3″-indolin]-5″- yl)-2-hydroxyethane-1-sulfonamide], for which, on hKIF18A (1-374) (setting [2]), the IC50 was found to be 4.6 nM. On the same count and under the same terms, the result for `CS(=O)(=O)Nc1ccc2c(c1)C1(CCC3(CC3)CC1)CN2C(=O)c1ccnc([C@H](O)C2CCCC2)c1` (single isomer, unassigned) [Compound 316b] reads 16 nM.
